Experimental data: patent US7872051B2 (priority 2004, dated 2011)
Like-named read-outs stand apart in the source and are kept apart here.

How the values were obtained:
[1] = tested on: HSV-1 (Herpes Simplex Virus type 1); experiment: Trial 2 virucidal assay, HSV-1 on Vero cells; type: cell-based; conditions: for Kill rate: gradient between the 1 minute and 5 minute time-points (FIG. 2)
MDCK cells [2] = experiment: Trial 1 acute toxicity assay of PMD; conditions: PMD 2%, 0.5%, 0.25% and 0.1% w/v
Procedure: The toxicity of PMD at the following concentrations in cell maintenance media was determined on a cell line with MDCK cells: • 2.5 mg/ml (0.25% w/v) • 5 mg/ml (0.5% w/v) • 20 mg/ml (2% w/v)
A cell only control was also implemented by following the same procedure (steps 2-6), but substituting PMD with cell maintenance media.
Toxicity was determined by toxicity-induced CPE (cytopathic effect) observations, which was visually scored using microscopy techniques. Toxicity-induced CPE is characterised by burst or rounded cells, which have become dissociated from their neighbouring cells, or the presence of cellular debris. […]

MDCK cells [3] = conditions: 5 min exposure, count after 24 h vs cell only control, rounded to nearest 5
Procedure: (§1) PMD was tested at the following concentrations: • 2% w/v (20 mg/ml) • 1% w/v (10 mg/ml) • 0.5% w/v (5 mg/ml • 0.25% w/v (2.5 mg/ml)
(§2) Each PMD concentration was made up in 100% isopropyl and then sufficient cell infection media added such that the final concentration of isopropyl was always 10%.
(§3) The different concentrations were made up by taking into account the initial dilution of the compound that occurs in the toxicity assay (step 1) and virucidal assay (step 4). The dilution factors for both assays are 2 and 1.1, respectively.
(§4) Each of the four PMD concentrations was tested for toxicity on each of the three cell lines.
(§5) A “cell only” control was also implemented by following the same procedure but substituting PMD (step 1) with infection media.
(§6) The procedure for the toxicity assay was as follows: • 1) Cells (200 μl), at 2×10^6 cells/ml, were added to PMD (200 μl) and the reaction incubated for 5 minutes at room temperature. • 2) The reaction was terminated by the addition of infection media (3.6 ml) appropriate to the cell line. • 3) The terminated reaction (1 ml) was added, in triplicate, to the relevant wells of a 24-well plate. • 4) The cells were incubated for 24 hours at 37° C., 5% CO2. • 5) After the incubation period, the cells were trypsinised, the appropriate triplicate wells pooled together and a viable cell count performed using Trypan blue dye. • 6) The toxicity of PMD was determined by calculating the percentage cell survival of the test cells in comparison to the control cells.

[4] = tested on: A/Sydney/5/97 (human influenza virus H3N2); experiment: Trial 2 virucidal assay, A/Sydney/5/97 on MDCK cells; type: cell-based; conditions: for Kill rate: line gradient of FIG. 4
Solubility in water = type: physicochemical
Urbani SARS = type: cell-based, Urbani SARS virus; conditions: for Kill rate: line gradient of FIG. 3
[5] = tested on: influenza virus A/Sydney/5/97; experiment: Trial 1 virucidal assay of PMD (CPE on MDCK cells); type: cell-based
Vero cells = conditions: 5 min exposure, count after 24 h vs cell only control, rounded to nearest 5
Procedure: as §1, §2, §3, §4, §5, §6

C1008 cells = conditions: 5 min exposure, count after 24 h vs cell only control, rounded to nearest 5
Procedure: as §1, §2, §3, §4, §5, §6

## CC1CCC(C(C)(C)O)C(O)C1 (stereo not drawn) [PMD, p-menthane-3,8-diol]
[1]; HSV-1
  Effectiveness against the virus: effective
[1]; HSV-1, PMD 0.25% w/v, contact time 10 seconds
  Log reduction in viral titre: 0 −log10 TCID50/ml
[1]; HSV-1, PMD 0.25% w/v, contact time 30 seconds
  Log reduction in viral titre: 0 −log10 TCID50/ml
[1]; HSV-1, PMD 0.25% w/v, contact time 60 seconds (1 minute)
  Log reduction in viral titre: 0 −log10 TCID50/ml
[1]; HSV-1, PMD 0.25% w/v, contact time 300 seconds (5 minutes)
  Log reduction in viral titre: 0.5 −log10 TCID50/ml
[1]; HSV-1, PMD 0.5% w/v, contact time 10 seconds
  Log reduction in viral titre: 0 −log10 TCID50/ml
[1]; HSV-1, PMD 0.5% w/v, contact time 30 seconds
  Log reduction in viral titre: 0 −log10 TCID50/ml
[1]; HSV-1, PMD 0.5% w/v, contact time 60 seconds (1 minute)
  Log reduction in viral titre: 0 −log10 TCID50/ml
[1]; HSV-1, PMD 0.5% w/v, contact time 300 seconds (5 minutes)
  Log reduction in viral titre: 0 −log10 TCID50/ml
[1]; HSV-1, PMD 1% w/v, contact time 10 seconds
  Log reduction in viral titre: 0 −log10 TCID50/ml
[1]; HSV-1, PMD 1% w/v, contact time 30 seconds
  Log reduction in viral titre: 0.5 −log10 TCID50/ml
[1]; HSV-1, PMD 1% w/v, contact time 60 seconds (1 minute)
  Log reduction in viral titre: 0.5 −log10 TCID50/ml
[1]; HSV-1, PMD 1% w/v, contact time 300 seconds (5 minutes)
  Log reduction in viral titre: 1.5 −log10 TCID50/ml
[1]; HSV-1, PMD 1% w/v
  Kill rate: 0.3 −log10 TCID50/ml/min
[1]; HSV-1, PMD 2% w/v, contact time 10 seconds
  Log reduction in viral titre: 0 −log10 TCID50/ml
[1]; HSV-1, PMD 2% w/v, contact time 30 seconds
  Log reduction in viral titre: 0 −log10 TCID50/ml
[1]; HSV-1, PMD 2% w/v, contact time 60 seconds (1 minute)
  Log reduction in viral titre: 0.5 −log10 TCID50/ml
[1]; HSV-1, PMD 2% w/v, contact time 300 seconds (5 minutes)
  Log reduction in viral titre: 2.5 −log10 TCID50/ml
[1]; HSV-1, PMD 2% w/v
  Kill rate: 0.5 −log10 TCID50/ml/min
[1]; PMD 0.25% w/v and 0.5% w/v
  Antiviral activity: did not exhibit any antiviral activity
[1]; PMD 1% w/v and 2% w/v, 5 minute contact time
  Reduction in viral titre (significance): Significant reduction in viral titre
[1]; all other concentrations and contact times
  Reduction in viral titre (significance): no significant reduction in viral titre
[1]; contact time of 5 minutes
  PMD concentration desirable for a significant effect: at least 1 % w/v
MDCK cells [2]
  Toxicity on MDCK cells: do not exhibit toxicity
MDCK cells [3]; PMD 0.25% w/v
  Percentage cell survival: 40%
MDCK cells [3]; PMD 0.5% w/v
  Percentage cell survival: 100%
MDCK cells [3]; PMD 2% w/v
  Percentage cell survival: 85%
[4]; 10 seconds' contact time
  PMD concentration desirable for a significant antiviral action: at least 1 % w/v
[4]; A/Sydney/5/97, PMD 0.25% w/v, contact time 10 seconds
  Log reduction in viral titre: 0.4 −log10 TCID50/ml
[4]; A/Sydney/5/97, PMD 0.25% w/v, contact time 30 seconds
  Log reduction in viral titre: 1.9 −log10 TCID50/ml
[4]; A/Sydney/5/97, PMD 0.25% w/v, contact time 60 seconds (1 minute)
  Log reduction in viral titre: 1.9 −log10 TCID50/ml
[4]; A/Sydney/5/97, PMD 0.25% w/v, contact time 300 seconds (5 minutes)
  Log reduction in viral titre: 1.4 −log10 TCID50/ml
[4]; A/Sydney/5/97, PMD 0.25% w/v
  Kill rate: 4.5 −log10 TCID50/ml/min
[4]; A/Sydney/5/97, PMD 0.5% w/v, contact time 10 seconds
  Log reduction in viral titre: 0.4 −log10 TCID50/ml
[4]; A/Sydney/5/97, PMD 0.5% w/v, contact time 30 seconds
  Log reduction in viral titre: 1.9 −log10 TCID50/ml
[4]; A/Sydney/5/97, PMD 0.5% w/v, contact time 60 seconds (1 minute)
  Log reduction in viral titre: 2.4 −log10 TCID50/ml
[4]; A/Sydney/5/97, PMD 0.5% w/v, contact time 300 seconds (5 minutes)
  Log reduction in viral titre: 1.9 −log10 TCID50/ml
[4]; A/Sydney/5/97, PMD 0.5% w/v
  Kill rate: 4.8 −log10 TCID50/ml/min
[4]; A/Sydney/5/97, PMD 1% w/v, contact time 10 seconds
  Log reduction in viral titre: 1.9 −log10 TCID50/ml
[4]; A/Sydney/5/97, PMD 1% w/v, contact time 30 seconds
  Log reduction in viral titre: 2.4 −log10 TCID50/ml
[4]; A/Sydney/5/97, PMD 1% w/v, contact time 60 seconds (1 minute)
  Log reduction in viral titre: 2.4 −log10 TCID50/ml
[4]; A/Sydney/5/97, PMD 1% w/v, contact time 300 seconds (5 minutes)
  Log reduction in viral titre: 2.4 −log10 TCID50/ml
[4]; A/Sydney/5/97, PMD 1% w/v
  Kill rate: 12.0 −log10 TCID50/ml/min
[4]; A/Sydney/5/97, PMD 2% w/v, contact time 10 seconds
  Log reduction in viral titre: 1.9 −log10 TCID50/ml
[4]; A/Sydney/5/97, PMD 2% w/v, contact time 30 seconds
  Log reduction in viral titre: 2.4 −log10 TCID50/ml
[4]; A/Sydney/5/97, PMD 2% w/v, contact time 60 seconds (1 minute)
  Log reduction in viral titre: 2.4 −log10 TCID50/ml
[4]; A/Sydney/5/97, PMD 2% w/v, contact time 300 seconds (5 minutes)
  Log reduction in viral titre: 2.4 −log10 TCID50/ml
[4]; A/Sydney/5/97, PMD 2% w/v
  Kill rate: 12.0 −log10 TCID50/ml/min
[4]; PMD 1% w/v and 2% w/v, all contact time points
  Reduction of viral titre: 1.9-2.4 log10 TCID50/ml
[4]; all concentrations tested, except 0.25% w/v and 0.5% w/v at the 10 second contact time
  Reduction of infection (significance): significantly reduces
[4]; influenza virus A/Sydney/5/97
  Effectiveness against the virus: effective
[4]; the two lower concentrations (0.25%, 0.5% w/v), 30 second to 5 minute contact times
  Reduction of viral titre: 1.9-2.4 log10 TCID50/ml
Solubility in water
  Solubility in water: poorly soluble
Urbani SARS; PMD 0.25%, 10 seconds' exposure
  Antiviral effect: effective
Urbani SARS; Urbani SARS
  Effectiveness against the virus: effective
Urbani SARS; Urbani SARS, PMD 0.25% w/v, contact time 10 seconds
  Log reduction in viral titre: 1 −log10 TCID50/ml
Urbani SARS; Urbani SARS, PMD 0.25% w/v, contact time 30 seconds
  Log reduction in viral titre: 2 −log10 TCID50/ml
Urbani SARS; Urbani SARS, PMD 0.25% w/v, contact time 60 seconds (1 minute)
  Log reduction in viral titre: 1.5 −log10 TCID50/ml
Urbani SARS; Urbani SARS, PMD 0.25% w/v, contact time 300 seconds (5 minutes)
  Log reduction in viral titre: 2 −log10 TCID50/ml
Urbani SARS; Urbani SARS, PMD 0.25% w/v
  Kill rate: 4.0 −log10 TCID50/ml/min
Urbani SARS; Urbani SARS, PMD 0.5% w/v, contact time 10 seconds
  Log reduction in viral titre: 1.5 −log10 TCID50/ml
Urbani SARS; Urbani SARS, PMD 0.5% w/v, contact time 30 seconds
  Log reduction in viral titre: 2.5 −log10 TCID50/ml
Urbani SARS; Urbani SARS, PMD 0.5% w/v, contact time 60 seconds (1 minute)
  Log reduction in viral titre: 2.5 −log10 TCID50/ml
Urbani SARS; Urbani SARS, PMD 0.5% w/v, contact time 300 seconds (5 minutes)
  Log reduction in viral titre: 2.5 −log10 TCID50/ml
Urbani SARS; Urbani SARS, PMD 0.5% w/v
  Kill rate: 6.0 −log10 TCID50/ml/min
Urbani SARS; Urbani SARS, PMD 1% w/v, contact time 10 seconds
  Log reduction in viral titre: 2 −log10 TCID50/ml
Urbani SARS; Urbani SARS, PMD 1% w/v, contact time 30 seconds
  Log reduction in viral titre: 1.5 −log10 TCID50/ml
Urbani SARS; Urbani SARS, PMD 1% w/v, contact time 60 seconds (1 minute)
  Log reduction in viral titre: 2 −log10 TCID50/ml
Urbani SARS; Urbani SARS, PMD 1% w/v, contact time 300 seconds (5 minutes)
  Log reduction in viral titre: 1.5 −log10 TCID50/ml
Urbani SARS; Urbani SARS, PMD 1% w/v
  Kill rate: 6.0 −log10 TCID50/ml/min
Urbani SARS; Urbani SARS, PMD 2% w/v, contact time 10 seconds
  Log reduction in viral titre: 1.5 −log10 TCID50/ml
Urbani SARS; Urbani SARS, PMD 2% w/v, contact time 30 seconds
  Log reduction in viral titre: 1 −log10 TCID50/ml
Urbani SARS; Urbani SARS, PMD 2% w/v, contact time 60 seconds (1 minute)
  Log reduction in viral titre: 1.5 −log10 TCID50/ml
Urbani SARS; Urbani SARS, PMD 2% w/v, contact time 300 seconds (5 minutes)
  Log reduction in viral titre: 1.5 −log10 TCID50/ml
Urbani SARS; Urbani SARS, PMD 2% w/v
  Kill rate: 6.0 −log10 TCID50/ml/min
Urbani SARS; all four concentrations, all contact times
  Reduction in viral titre (significance): significant reductions in viral titre
[5]
  Viral replication as evidenced by cell survival: no viral replication
[5]; PMD 0.5%, 0.25% and 0.1%, MDCK cells (cells were killed)
  Virucidal effect: no virucidal effect
Vero cells; PMD 0.25% w/v
  Percentage cell survival: 65%
Vero cells; PMD 0.5% w/v
  Percentage cell survival: 65%
Vero cells; PMD 2% w/v
  Percentage cell survival: 100%
C1008 cells; C1008, PMD 0.25% w/v
  Percentage cell survival: 80%
C1008 cells; C1008, PMD 0.5% w/v
  Percentage cell survival: 60%
C1008 cells; C1008, PMD 2% w/v
  Percentage cell survival: 100%
